# Experimental data: patent publication US20020049169A1, “Method for reducing toxicity of combined chemotherapies” (priority 2000, published 2002)
# Entries after “also recorded” stand apart in the source; their conditions may differ.
# How the values were obtained:
# Type in all cases: biochemical
# [1] = test system: human cardiac cytosol; assay: Reconstitution of DOX metabolism and DOXol formation, plus or minus taxanes, in human cardiac cytosol; details: for stimulation of DOXol formation (in words): [4Fe-4S]-depleted human cardiac cytosol, DOX 25 μM, taxane 1-50 μM, 4 h; for cytoplasmic conversion of DOX to doxorubicinol: human cardiac cytosol, n=3
# Source text: (§1) The enzymes of DOX metabolism are strongly species-related. To avoid the potential pitfalls associated with studies in animal models, an in vitro human heart assay was utilized. The assay involves isolation of both cytosolic fractions generating DOXol, and microsomal fractions converting DOX to free radicals.
# Reconstitution of DOX Metabolism and DOXol Formation, Plus or Minus Taxanes, in Human Cardiac Cytosol.
# (§2) Human myocardium is obtained from patients undergoing aorto-coronary bypass grafting. All samples were routinely disposed of by the surgeons from the lateral aspect of excluded right atrium during cannulation procedures for cardio-pulmonary by-pass. After storage at −80° C., pools of 15-20 samples are processed for cytosol preparation by sequential homogenization, ultracentrifugation and overnight 65% ammonium sulfate precipitation of 105,000 g supernatants. Next, cytosol is dialyzed against 100 mM Tris HCl-40 mM KCl, pH 8.9, diluted to 3 mg protein/ml with the same buffer, and incubated for 15 minutes at room temperature with 100 mM dithiothreitol to promote non-denaturing disassembly of the [4Fe-4S] cluster of cytoplasmic aconitase. This treatment is necessary as reactions of DOXol with [4Fe-4S] clusters would convert this metabolite back to DOX. Sizable amounts of DOXol would therefore go undetected if they reacted with [4Fe-4S] clusters prior to their assay. Unreacted dithiothreitol was eventually removed by sequential gel filtration on (1.5×10 cm) Sepharose 6B columns, protein reprecipitation with 65% ammonium sulfate, and extensive dialysis against 0.3 M NaCl, pH 7.0. Doxorubicin metabolism was reconstituted in 0.5 ml incubations containing cytosol (0.15 mg protein), NADPH (100 μM) and DOX (25 μM), in 0.3 M NaCl (pH 7.0) 37° C. Where indicated ethanol-dissolved taxanes (1-50 μM) were included. Aliquots of taxane-free ethanol (5 μl) were included as appropriate to adjust the final volume to 10 μl in all incubations. After 4 h DOX and DOXol were extracted with 2 ml of CHCl3/CH3OH (1:1) and separated by previously validated two-dimensional TLC on (20×20 cm) […] F524 Silica Gel Plates, using CHCl3/CH3OH/CH3COOH/H2O (80:20:14:6) as mobile phase in either dimension. Doxorubicinol was identified by cochromatography with (S)-DOXol from Streptomyces peucetius or (S)(R)-DOXol purified after NaBH4 reduction of DOX. Where indicated incubations were prepared by replacing DOX with DOX aglycone and by measuring formation of DOXol aglycone. The latter was separated from DOX aglycone by using CHCl3/CH3OH/CH3COOH (100:2:5) and CH3COOC2H5—CH3CH2OH—CH3COOH—H2O (80:10:5:5) in the first and second dimension, respectively. DOX aglycone was purified after thermoacid hydrolysis of DOX.
# [2] = test system: NADPH cytochrome P-450 reductase; assay: NADPH oxidation by deoxycholate-solubilized microsomes of human heart, plus or minus taxanes; details: 10 μM DOX, 1-10 μM taxane
# Description: (§3) Reconstitution of DOX Metabolism and Free Radical Formation, Plus or Minus Taxanes, in Human Cardiac Microsomes.
# (§4) 105,000 g pellets from human myocardium homogenates are solubilized with deoxycolate and reconstituted at the final concentration of 0.025 mg prot/ml with 10 μM DOX, 1-10 μM taxane, 0.1 mM NADPH, in 0.3 M NaCl, pH 7.0, 37° C.
# (§5) Electron flow from NADPH cytochrome P-450 reductase to the quinone moiety of DOX is detected by monitoring NADPH oxidation. Redox coupling of the semiquinone with oxygen is detected by monitoring formation of the superoxide anion radical with the superoxide dismutase-inhibitable reduction of cytochrome c (25 μM). These assays are performed in a Hewlett Packard 8453A UV/VIS/NIR spectrometer equipped with computer-assisted corrections for scatter and turbidity.
# [3] = test system: human cardiac cytosol; assay: Conversion of DOX aglycone into DOXol aglycone, plus or minus taxanes, in human cardiac cytosol; details: for stimulation of conversion of DOX aglycone into DOXol aglycone (in words): DOX aglycone in place of DOX, plus taxane; for cytoplasmic conversion of doxorubicinone to doxorubicinolone: n=3
# Source text: as §1, §2
# [4] = test system: human cardiac microsomes; assay: Superoxide anion formation (superoxide dismutase-inhibitable reduction of cytochrome c) by deoxycholate-solubilized human cardiac microsomes; details: for effect of taxane on DOX-dependent superoxide anion formation (in words): DOX plus 10 μM taxane; for generation of superoxide anion radicals in microsomal fractions: human cardiac microsomes, n=4-10
# Description: as §3, §4, §5
# [5] = deoxycholate-solubilized microsomes
# [6] = taxane 1 μM with doxorubicinone
# [7] = DOX alone, no taxane (baseline)
SMILES,effect on NADPH oxidation in the presence of DOX (in words) [2],"generation of superoxide anion radicals in microsomal fractions [4, 7] [nmol/mg prot./min]",generation of superoxide anion radicals in microsomal fractions ([4]; taxane 10 μM with DOX) [nmol/mg prot./min],stimulation of DOXol formation (in words) [1],stimulation of conversion of DOX aglycone into DOXol aglycone (in words) [3],"effect of taxane on DOX-dependent superoxide anion formation (in words) [4, 5]",cytoplasmic conversion of DOX to doxorubicinol ([1]; taxane 1 μM with DOX) [nmol/mg prot./4 h],"cytoplasmic conversion of doxorubicinone to doxorubicinolone [3, 6] [nmol/mg prot./4 h]","cytoplasmic conversion of DOX to doxorubicinol [1, 7] [nmol/mg prot./4 h]","effect of DOX on superoxide anion formation (in words) ([4]; deoxycholate-solubilized microsomes, DOX without taxane)","cytoplasmic conversion of doxorubicinone to doxorubicinolone ([3]; doxorubicinone alone, no taxane (baseline)) [nmol/mg prot./4 h]"
CSCO[C@H]1C[C@H]2OC[C@@]2(OC(C)=O)[C@H]2[C@H](OC(=O)c3ccccc3)[C@]3(O)C[C@H](OC(=O)[C@H](O)[C@@H](NC(=O)c4ccccc4)c4ccccc4)C(C)=C([C@@H](OC(C)=O)C(=O)[C@]12C)C3(C)C [7-methylthiomethyl taxol],appeared to inhibit NADPH oxidation,,,did not increase; also recorded: did not stimulate DOXol formation at any of the concentrations tested,did not increase; also recorded: has not been found to stimulate the formation of DOXol aglycone,did not increase; also recorded: did not afford any significant stimulation,,,,,
"CC(=O)O[C@@]12CO[C@@H]1C[C@H](O)[C@@]1(C)C(=O)[C@H](O)C3=C(C)[C@@H](OC(=O)[C@H](O)[C@@H](NC(=O)OC(C)(C)C)c4ccccc4)C[C@@](O)([C@@H](OC(=O)c4ccccc4)[C@H]21)C3(C)C [DCT, docetaxel]",,,,stimulate DOXol formation,able to stimulate the conversion of DOX aglycone into DOXol aglycone,significant increase in superoxide formation,1.2±0.2,1.3±0.2,,,
COc1cccc2c1C(=O)c1c(O)c3c(c(O)c1C2=O)C[C@@](O)(C(=O)CO)C[C@@H]3O [doxorubicinone],,,,,,,,,,,0.8±0.1

# Now from value to compound, other results behind:
effect on NADPH oxidation in the presence of DOX (in words) [2],"generation of superoxide anion radicals in microsomal fractions [4, 7] [nmol/mg prot./min]",generation of superoxide anion radicals in microsomal fractions ([4]; taxane 10 μM with DOX) [nmol/mg prot./min],SMILES,stimulation of DOXol formation (in words) [1],stimulation of conversion of DOX aglycone into DOXol aglycone (in words) [3],"effect of taxane on DOX-dependent superoxide anion formation (in words) [4, 5]",cytoplasmic conversion of DOX to doxorubicinol ([1]; taxane 1 μM with DOX) [nmol/mg prot./4 h],"cytoplasmic conversion of doxorubicinone to doxorubicinolone [3, 6] [nmol/mg prot./4 h]","cytoplasmic conversion of DOX to doxorubicinol [1, 7] [nmol/mg prot./4 h]","effect of DOX on superoxide anion formation (in words) ([4]; deoxycholate-solubilized microsomes, DOX without taxane)","cytoplasmic conversion of doxorubicinone to doxorubicinolone ([3]; doxorubicinone alone, no taxane (baseline)) [nmol/mg prot./4 h]"
,1.6±0.1,,"COc1cccc2c1C(=O)c1c(O)c3c(c(O)c1C2=O)C[C@@](O)(C(=O)CO)C[C@@H]3O[C@H]1C[C@H](N)[C@H](O)[C@H](C)O1 [DOX, doxorubicin]",,,,,,0.46±0.04,able to enhance superoxide anion formation,
able to stimulate NADPH oxidation,,2.2±0.2,"CC(=O)O[C@H]1C(=O)[C@@]2(C)[C@H]([C@H](OC(=O)c3ccccc3)[C@]3(O)C[C@H](OC(=O)[C@H](O)[C@@H](NC(=O)c4ccccc4)c4ccccc4)C(C)=C1C3(C)C)[C@]1(OC(C)=O)CO[C@@H]1C[C@@H]2O [PTX, paclitaxel]",stimulate DOXol formation,able to stimulate the conversion of DOX aglycone into DOXol aglycone,significant increase in superoxide formation,1.1±0.2,1.4±0.2,,,
